The results in this text go back to US20120088807A1, “INTERLACED METHOD FOR TREATING CANCER OR A PRECANCEROUS CONDITION” (TAU THERAPEUTICS LLC, priority 2009, published 2012).

One data set relates to A10 cells. Kind of data set: Cell cycle analysis using flow cytometry and BUdR staining. The class given is cell-based. How it is done: Cell cycle analysis was performed using flow cytometry and BUdR staining. In FIG. 3, “Con” represents untreated, control cells. All other cell cultures were treated with nocodazole, which interferes with microtubule polymerization and blocks the cell cycle during M phase. […] Because A10 cells reside primarily in the cell cycle checkpoint between G0 and G1 (See “Con” in FIG. 3), evaluating the possibility that a pharmacologic agent inhibits transit out of that phase is not as straightforward as determining blockade at other cell cycle checkpoints. Therefore, cell cultures were treated for 24 hours with T channel calcium channel blockers mibefradil (mib), nickel (Ni) or TTL-1177 (a proprietary compound owned by the assignee Tau Therapeutics), before adding nocodazole. Absent an effect on the T channel blockers, cells would be locked at the cell cycle checkpoint between G2 and M by nocodazole as happened with cells treated with it alone.

A further data set deals with PANC 219 tumor. Format: in vivo. The note with it: mibefradil 65 mg/kg p.o. b.i.d. How it is done:
Pancreatic cancers resected from patients were immediately transplanted into the flanks of nude mice and maintained by serial, in vivo passage. Transplanted tumors were implanted at a volume of about 100 mm^3 and allowed to grow to 200 to 300 mm^3 before initiation of treatment. Mice bearing the PANC 219 tumor were either left untreated or treated with mibefradil at 65 mg/kg p.o. b.i.d. (n=10 in each group). Tumor growth was normalized to the size measured at the start of treatment.

In data set [1] the test system is D54 tumors. Kind of data set: Interlaced therapy, human glioblastoma murine xenograft model (Example 4). The class given is in vivo, Mice. The procedure:
Studies of interlaced therapy for human glioblastoma in a murine xenograft model using the D54 cell line were conducted. Mice bearing subcutaneous implants of D54 tumors, which were allowed to become established at a volume of about 100 mm^3, were treated with mibefradil at 40 mg/kg p.o. q.i.d. for 7 days or left untreated. On day seven, all animals received the S phase cytotoxin temozolamide at a dose of 25% of the LD10 over five days. Following two days of no treatment, mibefradil was re-started at a dose of 35 mg/kg p.o. q.i.d. in the group of mice which were originally treated with mibefradil. On day 20, the mean tumor volume in the temozolamide only group of mice was 173 mm^3 as compared to the temozolamide plus mibefradil group of mice, whose mean tumor volume was 102 mm^3 (p=0.0485; n=10/group; Student's pooled, two tailed t-test). A pooled, two tailed. Student's t-test over all seven tumor volume measurements yielded p=0.0329. There were no animals that were euthanized in either group due to tumor size. The mean volume in the control group, which received no intervention, was 1214 mm^3 with three animals euthanized because of tumor size.
For orientation: A xenograft is tissue or cells of one species grown in another, often human tumour cells in immunodeficient mice.

The test system of data set [2] is D54 tumors. Kind of data set: Interlaced therapy, human glioblastoma murine xenograft model, two cytotoxin rounds (Example 5). The note with it: over 30 days; subcutaneous D54; temozolamide 25% then 10% of LD10; mibefradil 40 then 35 mg/kg p.o. q.i.d. Format: in vivo, Mice.
Procedure: Further studies of interlaced therapy for human glioblastoma in a murine xenograft model using the D54 cell line were conducted. Mice bearing subcutaneous implants of D54 tumors, which were allowed to become established, were treated with mibefradil at 40 mg/kg p.o. q.i.d. for 7 days or left untreated. On day seven, all animals received the S phase cytotoxin temozolamide at a dose of 25% of the LD10 over five days. Following two days of no treatment, mibefradil was re-started at a dose of 35 mg/kg p.o. q.i.d. in the group of mice which were originally treated with mibefradil.
Where [3] appears, read: A10 cells treated 24 hours with T channel blocker before adding nocodazole.

Turning to `COCC(=O)O[C@]1(CCN(C)CCCc2nc3ccccc3[nH]2)CCc2cc(F)ccc2[C@@H]1C(C)C` [mibefradil], the “effect on cell cycle transit” value in the data set with A10 cells (setting [3]) was “arrested cells at the cell cycle checkpoint between G0 and G1”. Further, the tumor regression result with PANC 219 tumor (PANC 219 tumor in nude mice) is reported as “did not cause tumor regression”. The tumor growth result in the data set with PANC 219 tumor (PANC 219 tumor, growth normalized to size at start of treatment) is “controlled tumor growth”. Moreover, the “deaths in treatment group” value in the data set with PANC 219 tumor (n=10, day 9) is “One mouse in the treatment group died”.

`[Ni]` [nickel]: in the data set with A10 cells (setting [3]), the “effect on cell cycle transit” value was “arrested cells at the cell cycle checkpoint between G0 and G1”.

For `COC(=O)Nc1nc2ccc(C(=O)c3cccs3)cc2[nH]1` [nocodazole], the “effect on cell cycle transit” value in the data set on A10 cells (A10 cells, nocodazole alone) was “blocked cell cycle transit through M phase”.

On to `Cn1nnc2c(C(N)=O)ncn2c1=O` [temozolamide], for which the mean tumor volume is 173 mm^3 in the data set with D54 tumors [1] (day 20, subcutaneous D54, temozolamide 25% of LD10 over five days, mibefradil 40 then 35 mg/kg p.o. q.i.d., n=10/group) and 156±65 mm^3 in the data set with D54 tumors [2]. Moreover, the “animals euthanized due to tumor size” value in the data set with D54 tumors [1] (subcutaneous D54, n=10/group) is reported as “no animals”.
